According to publication PMC3466060 (2011):

Test system: 3′-Fl-AM1A-(18)-Rhd (RNA, riboswitch) GAGGGUGGAACCGCGCUUCGGCGUCCCUC
Experiment: FRET binding titration
Conditions: 50 mM NaCl, 5 mM MgCl2

Kd: > 100 µM
SMILES: O=C(Cc1ccccc1)OCC1OC(=O)NC1CN1CCN(c2ccccc2)CC1 (racemic)
